Measured values taken from patent US10106578B2, “Melanocortin-1 receptor-specific linear peptides” (Palatin Technologies, Inc., priority 2012, dated 2018).
Where a SMILES comes first, the peptide text is derived from it. [ ]: non-standard residue; d: D form. Nle = CCCC[C@H](N)C(=O)O; Orn = NCCC[C@H](N)C(=O)O; Dab = NCC[C@H](N)C(=O)O; Sar = CNCC(=O)O

Assays:
hMCR-4 = target: T1, hMCR-4 (Homo sapiens, UniProt P32245); test: Competitive inhibition binding assay using [I125]-NDP-α-MSH, hMCR-4 membranes; conditions: HEK-293 membranes, recombinant human MCR-4, [I125]-NDP-α-MSH; read-out: MC-4 Ki (average)
T1 construct: expressed in transfected cells; host or cells: HEK-293 cells (membrane homogenates)
Description: (§1) A competitive inhibition binding assay was performed using membrane homogenates prepared from HEK-293 cells that express recombinant hMCR-1a or hMCR-4 (in each instance where the h prefix refers to human), or alternatively membrane homogenates from B16-F10 mouse melanoma cells containing endogenous murine MCR-1. In the examples that follow, all MCR-1 and MCR-4 values are for human recombinant receptors, unless otherwise noted. Assays were performed in 96 well polypropylene round-bottom plates (VWR catalog number 12777-030). Membrane homogenates were incubated with 0.1 nM [I^125]-NDP-α-MSH (Perkin Elmer) and increasing concentrations of test peptides of the present invention in buffer containing 25 mM HEPES buffer (pH 7.5) with 100 mM NaCl, 2 mM CaCl2, 2 mM MgCl2, 0.3 mM 1,10-phenanthroline, and 0.2% bovine serum albumin. After incubation for 90 minutes at 37° C., the assay mixture was filtered onto GF/B Unifilter plates (Perkin-Elmer catalog number 6005177) and washed with 3 mL of ice-cold buffer per well. Filters were air dried and 35 μL of scintillation cocktail added to each well. Plates were counted in a Microbeta counter for bound radioactivity. Non-specific binding was measured by inhibition of binding of [I^125]-NDP-α-MSH in the presence of 1 μM NDP-α-MSH. Maximal specific binding (100%) was defined as the difference in radioactivity (cpm) bound to cell membranes in the absence and presence of 1 μM NDP-α-MSH. Each assay was conducted in duplicate and the actual mean values are described, with results less than 0% reported as 0%. Ki values for peptides of the present invention were determined using Graph-Pad PRISM® curve-fitting software.
(§2) Peptides of the following structures were synthesized and purified as described in Section 5 above, with the resulting peptide having the structure depicted. After synthesis and purification, the foregoing peptide was tested as described in Section 8 above, and average MCR-1 and MCR-4 Ki values determined as indicated. All Ki values were determined using [I^125]-NDP-α-MSH. All results are expressed in nM except for Emax values, which are percentage values.

hMCR-1a = target: T2, hMCR-1a (Homo sapiens, UniProt Q01726); test: Competitive inhibition binding assay using [I125]-NDP-α-MSH, hMCR-1a membranes; conditions: HEK-293 membranes, recombinant human MCR-1, [I125]-NDP-α-MSH; read-out: MC-1 Ki (average)
T2 construct: expressed in transfected cells; host or cells: HEK-293 cells (membrane homogenates)
Description: as §1, §2

hMCR-1 = target: T3, hMCR-1 (Homo sapiens, UniProt Q01726); test: Assay for agonist activity: cAMP accumulation in HBL human melanoma cells; format: cell-based; conditions: for Emax: compared to reference agonist NDP-α-MSH, read-out: MC-1 Emax (average; cAMP HBL); for EC50: read-out: MC-1 EC50 (average; cAMP HBL)
T3 construct: endogenous in cells; host or cells: HBL human melanoma cell line
Description: Accumulation of intracellular cAMP was examined as a measure of the ability of the peptides of the present invention to elicit a functional response in a human melanoma cell line, HBL, that express hMCR-1 (see Kang, L., et al., “A selective small molecule agonist of melanocortin-1 receptor inhibits lipopolysaccharide-induced cytokine accumulation and leukocyte infiltration in mice,” J. Leuk. Biol. 80:897-904 (2006)) or HEK-293 cells that express hMCR-4. Confluent HBL cells that express hMCR-1 or HEK-293 cells that express recombinant hMCR-4 were detached from culture plates by incubation in enzyme-free cell dissociation buffer. Dispersed cells were suspended in Earle's Balanced Salt Solution containing 10 mM HEPES (pH 7.5), 1 mM MgCl2, 1 mM glutamine, 0.5% albumin and 0.3 mM 3-isobutyl-1-methyl-xanthine (IBMX), a phosphodiesterase inhibitor. The cells were plated in 96-well plates at a density of 0.4×10^5 cells per well for HBL cells and 0.5×10^5 cells per well for HEK-293 cells and pre-incubated for 10 minutes. Cells were exposed for 15 minutes at 37° C. to peptides of the present invention dissolved in DMSO (final DMSO concentration of 1%) at a concentration range of 0.05-5000 nM in a total assay volume of 200 μL. NDP-α-MSH was used as the reference agonist. cAMP levels were determined by an HTRF® cAMP cell-based assay system from Cisbio Bioassays utilizing cryptate-labeled anti-cAMP and d2-labeled cAMP, with plates read on a Perkin-Elmer Victor plate reader at […]. Data analysis was performed by nonlinear regression analysis with Graph-Pad PRISM® software. Maximum efficacy (Emax) values were determined for each test peptide of the present invention, compared to that achieved by the reference melanocortin agonist NDP-α-MSH.
as §2

T3 sequence (Q01726 whole entry): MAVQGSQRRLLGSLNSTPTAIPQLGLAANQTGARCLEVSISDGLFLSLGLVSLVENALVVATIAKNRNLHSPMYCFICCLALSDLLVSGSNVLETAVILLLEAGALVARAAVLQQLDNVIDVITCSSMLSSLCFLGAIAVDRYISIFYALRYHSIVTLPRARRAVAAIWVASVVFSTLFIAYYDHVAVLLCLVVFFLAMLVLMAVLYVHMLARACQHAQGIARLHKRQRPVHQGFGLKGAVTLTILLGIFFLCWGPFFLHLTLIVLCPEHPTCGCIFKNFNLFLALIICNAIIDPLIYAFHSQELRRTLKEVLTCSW
T2 sequence (Q01726 whole entry): as above
T1 sequence (P32245 whole entry): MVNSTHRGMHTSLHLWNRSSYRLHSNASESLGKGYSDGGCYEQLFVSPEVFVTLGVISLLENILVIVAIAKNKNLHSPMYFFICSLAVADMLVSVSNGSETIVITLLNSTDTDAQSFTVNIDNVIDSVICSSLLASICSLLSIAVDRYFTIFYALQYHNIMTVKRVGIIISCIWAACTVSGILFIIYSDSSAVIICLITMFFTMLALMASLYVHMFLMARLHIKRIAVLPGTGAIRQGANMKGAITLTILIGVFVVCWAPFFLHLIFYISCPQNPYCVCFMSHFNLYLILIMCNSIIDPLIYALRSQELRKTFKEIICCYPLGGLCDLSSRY

Ki (hMCR-4) [nM]	Ki (hMCR-1a) [nM]	Emax (hMCR-1) [%]	EC50 (hMCR-1) [nM]	Structure (SMILES)
870	2	77	0.17	CCCC[C@H](NC(C)=O)C(=O)N[C@@H](C)C(=O)N[C@@H](Cc1c[nH]cn1)C(=O)N[C@H](Cc1ccccc1)C(=O)N[C@@H](CCCNC(=N)N)C(=O)N(C)CC(=O)N[C@@H](Cc1c[nH]c2ccccc12)C(N)=O [Example 9.4, Ac-Nle-Ala-His-D-Phe-Arg-Sar-Trp-NH2] (Ac-[Nle]AH[dF]R[Sar]W-NH2)
7580	0.3	107	–	CCCC[C@H](NC(C)=O)C(=O)N[C@@H](C)C(=O)N[C@@H](CCCN)C(=O)N[C@H](Cc1ccccc1)C(=O)N[C@@H](CCCNC(=N)N)C(=O)N[C@@H](C)C(=O)N[C@@H](Cc1c[nH]c2ccccc12)C(N)=O [Example 9.21, Ac-Nle-Ala-Orn-D-Phe-Arg-Ala-Trp-NH2] (Ac-[Nle]A[Orn][dF]RAW-NH2)
7850	2	101	–	CCCC[C@H](NC(C)=O)C(=O)N[C@@H](C)C(=O)N[C@@H](CCN)C(=O)N[C@H](Cc1ccccc1)C(=O)N[C@@H](CCCNC(=N)N)C(=O)N[C@@H](C)C(=O)N[C@@H](Cc1c[nH]c2ccccc12)C(N)=O [Example 9.22, Ac-Nle-Ala-Dab-D-Phe-Arg-Ala-Trp-NH2] (Ac-[Nle]A[Dab][dF]RAW-NH2)
650	2	90	0.17	CCCC[C@H](NC(C)=O)C(=O)N[C@@H](C)C(=O)N[C@@H](Cc1c[nH]cn1)C(=O)N[C@H](Cc1ccccc1)C(=O)N[C@@H](CCCNC(=N)N)C(=O)N1CCC[C@H]1C(=O)N[C@H](Cc1c[nH]c2ccccc12)C(N)=O [Example 9.13, Ac-Nle-Ala-His-D-Phe-Arg-Pro-D-Trp-NH2] (Ac-[Nle]AH[dF]RP[dW]-NH2)
